These results are taken from patent US20090317376A1, “Compositions And Methods For Lipo Modeling” (Georgetown University MEDICAL SCHOOL, priority 2005, published 2009).

Structures are written as SMILES. “Also recorded” adds a separate entry of the source.

The experiment is described as follows: Glucose tolerance test. It counts as in vivo, mice. Conditions: for response to glucose challenge / glucose intolerance: WT mice exposed to stress and high-fat diet, FIG. 18A. The method, then:
Glucose tolerance test: After an overnight 17 h fast, unanesthetized mice are injected i.p. with a dose of 1.5 g of 50% glucose solution per kg of body weight. Blood samples are obtained from the tail vein 30 min prior to the glucose challenge and then again at 0, 30, 60, 90 min after the glucose challenge. Blood glucose concentrations are measured with an Elite XL (Bayer) portable glucose meter.
1. Cell culture: 3T3-L1 preadipocyte cells, (gift from Dr. Lane,^34) were cultured in DMEM high glucose media with glutamine, 10% calf sera (Gemini Bioproducts), d-Biotin (8 μg/ml) and Pantothenate (8 μg/ml) (Sigma). SK-N-BE(2) neuroblastoma cells (ATCC) were cultured in EMEM/F12K with 10% fetal bovine sera (FBS). HMVEC endothelial cells (Cambrex) were cultured in endothelial cell growth media (Cambrex). All media was supplemented with 100 units/ml penicillin, 100 μg/ml streptomycin and […] amphotericin. 2. Proliferation assay: Cells were plated onto 96-well dishes, growth-arrested in serum-free media for 24 h, and then were treated with the desired factors for 24 h in the culture media supplemented with 0.25% FBS; 4 hr after treatment 0.5 μCi [^3H] thymidine was added to each well. After 24 h, cells were harvested in a 96-well harvester (Tomtec) and counted in a Betaplate Liquid Scintillation Counter (Wallac). 3. Co-culture: For mitogenic assay and expression studies, co-culture was performed in a Costar Transwell system. Cells were plated on 6-well plates or inserts with 0.4 μm Polyester membranes. At 30% confluence, the inserts were combined with wells containing other cells. […] After 48 hr, the cells were counted with a Beckman Coulter Counter. […] The results were analyzed using software provided by BioRad and expression levels calculated by the comparative CT method using β-actin as an endogenous reference gene, according to the Applied Biosystems' ABI PRISM 7700 User Bulletin #2. […] The density of TUNEL positive cells will be measured using NIH ImageJ software (using a plugin written by Wayne Rasband). […]

On to `N=C(N)NCCC[C@H](NC(=O)CC1(CC(=O)N2CCN(C3c4ccccc4NC(=O)c4ccccc43)CC2)CCCC1)C(=O)NCCn1c(=O)n(-c2ccccc2)n(-c2ccccc2)c1=O` (stereo partly drawn) [BIIE0246], for which the “response to glucose challenge / glucose intolerance” value is reported as “resolved” (listed as Y2R antagonist) and “normalized glucose intolerance” (listed as Y2 antagonist). Besides, under “ob/ob mice, FIG. 18B, listed as Y2R antagonist”, the “response to glucose challenge” value is listed as “near normal response to the challenge; also recorded: resolved”.
